Measured values from ChEMBL document CHEMBL5500403, “Discovery of a Double-Stapled Short Peptide as a Long-Acting HIV-1 Inactivator with Potential for Oral Bioavailability” (J Med Chem, 2024).
Bridge positions count the residues as written; N and C are the ends. Square brackets hold non-standard residues; d marks the D form. Peptide text beside a SMILES is read from it. S5 = C=CCCC[C@](C)(N)C(=O)O

Key:
[1] = system: Human immunodeficiency virus 1; experiment: Antiviral activity against HIV-1 IIIB infected in human MT2 cells assessed as inhibition of viral growth pretreated with virus for 30 mins followed by infection with cells incubated for 72 hrs by ELISA; assay type: functional, organism-based; conditions: Human immunodeficiency virus 1, IIIB
[2] = Cytotoxicity against human MT2 cells; assay type: toxicity, cell-based
[3] = Selectivity index, ratio of CC50 for cytotoxicity against human MT2 cells to IC50 for antiviral activity against HIV-1 IIIB infected in human MT2 cells; assay type: toxicity, cell-based; conditions: read-out: Ratio CC50/IC50
chymotrypsin = chymotrypsin (Homo sapiens, UniProt P17538+P40313+Q6GPI1+Q99895); experiment: Proteolytic stability assessed as Chymotrypsin (unknown origin) mediated compound degradation by measuring parent compound remaining incubated for 2 hrs by LC-MS/MS analysis; assay type: ADME, protein assay; conditions: read-out: Stability
[4] = Drug degradation in rat plasma at 1 ug/ml incubated for 1 hr by LC-MS/MS analysis; assay type: ADME, cell-free; conditions: at 1 µg/mL
[5] = MRT in Sprague-Dawley rat at 1 mg/kg,iv administration measured upto 9 days by LC-MS/MS analysis; assay type: ADME, organism-based; conditions: in vivo, time < 9 day
[6] = Stability in rat liver assessed as parent compound remaining at 1 ug/ml incubated for 1 hr by LC-MS/MS analysis; assay type: ADME, tissue-based; conditions: at 1 µg/mL, read-out: Stability
[7] = Drug concentration in Sprague-Dawley rat plasma at 50 mg/kg,po administrated for 5 days by LC-MS/MS analysis; assay type: ADME, organism-based; conditions: in vivo, 120 h, time 5 day
[8] = Proteolytic stability assessed as Pepsin (unknown origin) mediated compound degradation incubated for 4 hrs by LC-MS/MS analysis; assay type: ADME; conditions: human
[9] = system: Human immunodeficiency virus 1; experiment: Antiviral activity against HIV-1 clinical isolate X4-89BZ167 assessed as reduction in viral growth by measuring p24 antigen level incubated for 2 hrs by ELISA; assay type: functional, organism-based; conditions: Human immunodeficiency virus 1, clinical isolate X4-89BZ167, 2 h
[10] = Biodistribution in Sprague-Dawley rat brain at 1 mg/kg,iv administration measured after 144 hrs by LC-MS/MS analysis; assay type: ADME, organism-based; conditions: in vivo
[11] = system: Human immunodeficiency virus 1; experiment: Antiviral activity against HIV-1 Bal-R5 assessed as reduction in viral growth by measuring p24 antigen level incubated for 2 hrs by ELISA; assay type: functional, organism-based; conditions: Human immunodeficiency virus 1, Bal-R5, 2 h
[12] = Biodistribution in Sprague-Dawley rat brain at 1 mg/kg,iv administration measured after 5 mins by LC-MS/MS analysis; assay type: ADME, organism-based; conditions: in vivo
[13] = system: Human immunodeficiency virus 1; experiment: Antiviral activity against T20-resistant HIV-1 NL4-3 harboring […] V38E and N42S mutant assessed as reduction in viral growth by measuring p24 antigen level incubated for 2 hrs by ELISA; assay type: functional, organism-based
[14] = system: Human immunodeficiency virus 1; experiment: Antiviral activity against T20-resistant HIV-1 NL4-3 harboring […] N38A and N42T mutant assessed as reduction in viral growth by measuring p24 antigen level incubated for 2 hrs by ELISA; assay type: functional, organism-based
[15] = system: Human immunodeficiency virus 1; experiment: Antiviral activity against T20-resistant HIV-1 NL4-3 harboring […] N42T and N43K mutant assessed as reduction in viral growth by measuring p24 antigen level incubated for 2 hrs by ELISA; assay type: functional, organism-based
[16] = system: Human immunodeficiency virus 1; experiment: Antiviral activity against T20-resistant HIV-1 NL4-3 harboring […] N38A and N42T mutant infected in human MT2 cells assessed as inhibition of viral growth pretreated with virus for 30 mins followed by infection with cells incubated for 72 hrs by ELISA; assay type: functional, organism-based
[17] = Total clearance in Sprague-Dawley rat at 1 mg/kg,iv administration measured upto 9 days by LC-MS/MS analysis; assay type: ADME, organism-based; conditions: in vivo, time < 9 day
[18] = system: Human immunodeficiency virus 1; experiment: Antiviral activity against HIV-1 IIIB assessed as reduction in viral growth by measuring p24 antigen level incubated for 2 hrs by ELISA; assay type: functional, organism-based; conditions: Human immunodeficiency virus 1, IIIB
[19] = Volume of distribution at steady state in Sprague-Dawley rat at 1 mg/kg,iv administration measured upto 9 days by LC-MS/MS analysis; assay type: ADME, organism-based; conditions: in vivo, time < 9 day, read-out: Vdss
[20] = Proteolytic stability assessed as proteinase K (unknown origin) mediated compound degradation incubated for 4 hrs by LC-MS/MS analysis; assay type: ADME; conditions: human
[21] = system: Human immunodeficiency virus 1; experiment: Antiviral activity against T20-resistant HIV-1 NL4-3 harboring […] N42T and N43K mutant infected in human MT2 cells assessed as inhibition of viral growth pretreated with virus for 30 mins followed by infection with cells incubated for 72 hrs by ELISA; assay type: functional, organism-based
[22] = Elimination half life in Sprague-Dawley rat at 1 mg/kg,iv administration measured upto 9 days by LC-MS/MS analysis; assay type: ADME, organism-based; conditions: in vivo, time < 9 day, read-out: beta t1/2 (converted)
[23] = AUClast in Sprague-Dawley rat at 1 mg/kg,iv administration measured upto 9 days by LC-MS/MS analysis; assay type: ADME, organism-based; conditions: in vivo, time < 9 day
[24] = system: Human immunodeficiency virus 1; experiment: Antiviral activity against T20-resistant HIV-1 NL4-3 harboring […] V38E and N42S mutant infected in human MT2 cells assessed as inhibition of viral growth pretreated with virus for 30 mins followed by infection with cells incubated for 72 hrs by ELISA; assay type: functional, organism-based
[25] = Plasma protein binding in human by LC-MS/MS analysis; assay type: ADME, cell-free; conditions: read-out: PPB (converted)
[26] = Plasma protein binding in rat by LC-MS/MS analysis; assay type: ADME, cell-free; conditions: read-out: PPB (converted)

CC(=O)NCC(=O)N[C@@H](Cc1c[nH]c2ccccc12)C(=O)N[C@@H](CCC(=O)O)C(=O)N[C@@H](C)C(=O)N[C@@H](CC(C)C)C(=O)N[C@@H](CCCCN)C(=O)N[C@@H](Cc1ccc(O)cc1)C(=O)N[C@@H](CC(C)C)C(=O)N[C@@]1(C)CCC/C=C\CCC[C@@](C)(C(=O)N[C@@H](Cc2ccc(O)cc2)C(=O)N[C@@H](Cc2c[nH]c3ccccc23)C(N)=O)NC(=O)[C@H](CC(C)C)NC(=O)[C@H](CC(C)C)NC(=O)[C@H](CC(N)=O)NC1=O (Ac-GWEALKYL[S5]NLL[S5]YW-NH2; staple (Z) 9-13)
IC50 [1]: 160 nM | CC50 [2]: 5.87 µM | selectivity ratio [3]: 36.9

CC(=O)N[C@@]1(C)CCC/C=C\CCC[C@@](C)(C(=O)N[C@@H](CCCCN)C(=O)N[C@@H](Cc2ccc(O)cc2)C(=O)N[C@@]2(C)CCC/C=C\CCC[C@@](C)(C(=O)N[C@@H](CCC(N)=O)C(=O)N[C@@H](Cc3ccc(O)cc3)C(=O)N[C@@H](Cc3c[nH]c4ccccc34)C(N)=O)NC(=O)[C@H](CC(C)C)NC(=O)[C@H](CC(N)=O)NC(=O)[C@H](Cc3c[nH]c4ccccc34)NC2=O)NC(=O)[C@H](C)NC(=O)[C@H](CCC(=O)O)NC(=O)[C@H](Cc2c[nH]c3ccccc23)NC1=O (Ac-[S5]WEA[S5]KY[S5]WNL[S5]QYW-NH2; staple (Z) 1-5, 8-12)
IC50 [1]: 124 nM | CC50 [2]: 4.03 µM | selectivity ratio [3]: 32.6

CC(=O)N[C@@]1(C)CCC/C=C\CCC[C@@](C)(C(=O)N[C@@H](CCCCN)C(=O)N[C@@H](Cc2ccc(O)cc2)C(=O)N[C@@H](CC(C)C)C(=O)N[C@@H](Cc2c[nH]c3ccccc23)C(=O)N[C@@H](CC(N)=O)C(=O)N[C@@H](CC(C)C)C(=O)N[C@@H](CC(C)C)C(=O)N[C@@H](CCC(N)=O)C(=O)N[C@@H](Cc2ccc(O)cc2)C(=O)N[C@@H](Cc2c[nH]c3ccccc23)C(N)=O)NC(=O)[C@H](C)NC(=O)[C@H](CCC(=O)O)NC(=O)[C@H](Cc2c[nH]c3ccccc23)NC1=O (Ac-[S5]WEA[S5]KYLWNLLQYW-NH2; staple (Z) 1-5)
IC50 [1]: 34.2 nM | CC50 [2]: 2.67 µM | selectivity ratio [3]: 78.5

H-GWEALKYLWNLLQYW-OH
IC50 [1]: 130 nM | remaining at 2 h (chymotrypsin): 32.9% | Stability [4]: Stable | MRT [5]: 5.4 h | remaining at 1 h, 1 ug/ml [6]: 80% | Drug uptake [7]: Not Active | Stability [8]: Unstable | EC50 [9]: 98 nM | Drug uptake [10]: Not Active | EC50 [11]: 25.3 µM | Drug uptake [12]: Active | EC50 [13]: 371 nM | CC50 [2]: 7.9 µM | EC50 [14]: 30.5 nM | EC50 [15]: 41.9 nM | IC50 [16]: 20.1 nM | clearance [17]: 0.158 mL/min/kg | EC50 [18]: 26.1 nM | Vd [19]: 0.0527 L/kg | Stability [20]: Unstable | IC50 [21]: 142 nM | selectivity ratio [3]: 60.9 | half-life [22]: 228 min | AUC(0-t) at 216 h [23]: 114 µg·h/mL | IC50 [24]: 21.3 nM

CC(=O)NCC(=O)N[C@@]1(C)CCC/C=C\CCC[C@@](C)(C(=O)N[C@@H](Cc2ccc(O)cc2)C(=O)N[C@@H](CC(C)C)C(=O)N[C@@H](Cc2c[nH]c3ccccc23)C(=O)N[C@@H](CC(N)=O)C(=O)N[C@@H](CC(C)C)C(=O)N[C@@H](CC(C)C)C(=O)N[C@@H](CCC(N)=O)C(=O)N[C@@H](Cc2ccc(O)cc2)C(=O)N[C@@H](Cc2c[nH]c3ccccc23)C(N)=O)NC(=O)[C@H](CC(C)C)NC(=O)[C@H](C)NC(=O)[C@H](CCC(=O)O)NC1=O (Ac-G[S5]EAL[S5]YLWNLLQYW-NH2; staple (Z) 2-6)
IC50 [1]: 121 nM | CC50 [2]: 7.18 µM | selectivity ratio [3]: 59.3

CC(=O)NCC(=O)N[C@@H](Cc1c[nH]c2ccccc12)C(=O)N[C@@H](CCC(=O)O)C(=O)N[C@@]1(C)CCC/C=C\CCC[C@@](C)(C(=O)N[C@@H](Cc2c[nH]c3ccccc23)C(=O)N[C@@H](CC(N)=O)C(=O)N[C@@H](CC(C)C)C(=O)N[C@@H](CC(C)C)C(=O)N[C@@H](CCC(N)=O)C(=O)N[C@@H](Cc2ccc(O)cc2)C(=O)N[C@@H](Cc2c[nH]c3ccccc23)C(N)=O)NC(=O)[C@H](Cc2ccc(O)cc2)NC(=O)[C@H](CCCCN)NC(=O)[C@H](CC(C)C)NC1=O (Ac-GWE[S5]LKY[S5]WNLLQYW-NH2; staple (Z) 4-8)
IC50 [1]: 44.2 nM | CC50 [2]: 2.31 µM | selectivity ratio [3]: 52.5

CC(=O)NCC(=O)N[C@@H](Cc1c[nH]c2ccccc12)C(=O)N[C@@H](CCC(=O)O)C(=O)N[C@@H](C)C(=O)N[C@@H](CC(C)C)C(=O)N[C@@H](CCCCN)C(=O)N[C@@H](Cc1ccc(O)cc1)C(=O)N[C@@]1(C)CCC/C=C\CCC[C@@](C)(C(=O)N[C@@H](CCC(N)=O)C(=O)N[C@@H](Cc2ccc(O)cc2)C(=O)N[C@@H](Cc2c[nH]c3ccccc23)C(N)=O)NC(=O)[C@H](CC(C)C)NC(=O)[C@H](CC(N)=O)NC(=O)[C@H](Cc2c[nH]c3ccccc23)NC1=O (Ac-GWEALKY[S5]WNL[S5]QYW-NH2; staple (Z) 8-12)
IC50 [1]: 95.5 nM | CC50 [2]: 2.49 µM | selectivity ratio [3]: 26.1

CC(=O)NCC(=O)N[C@@H](Cc1c[nH]c2ccccc12)C(=O)N[C@@H](CCC(=O)O)C(=O)N[C@@H](C)C(=O)N[C@@]1(C)CCC/C=C\CCC[C@@](C)(C(=O)N[C@@H](CC(N)=O)C(=O)N[C@@H](CC(C)C)C(=O)N[C@@H](CC(C)C)C(=O)N[C@@H](CCC(N)=O)C(=O)N[C@@H](Cc2ccc(O)cc2)C(=O)N[C@@H](Cc2c[nH]c3ccccc23)C(N)=O)NC(=O)[C@H](CC(C)C)NC(=O)[C@H](Cc2ccc(O)cc2)NC(=O)[C@H](CCCCN)NC1=O (Ac-GWEA[S5]KYL[S5]NLLQYW-NH2; staple (Z) 5-9)
IC50 [1]: > 2000 nM

enfuvirtide
IC50 [1]: 48.6 nM | EC50 [9]: > 4000 nM | EC50 [11]: > 4 µM | fraction unbound [25]: 0.187 | EC50 [18]: > 4000 nM | fraction unbound [26]: 0.041
